This note sets out measurements from patent US12167742B2, “Nutritional composition comprising 6′SL and LNT in combination to improve the gastrointestinal barrier function” (SOCIETE DES PRODUITS NESTLE S.A., priority 2018, dated 2024).

The assay has as its target GPR35 (Homo sapiens, UniProt Q9HC97). The experiment in a line: PathHunter β-Arrestin assay, activation of GPR35 expressed in cultured cells (DiscoverX). Conditions: for EC50: dose-response by 3× dilutions from 10 mM, duplicate, β-arrestin recruitment; for activation of GPR35: Example 2, HMO screening, highest concentration tested 10 mM. It is filed as cell-based. The protocol: Six human milk oligosaccharides (LNnT, LNT, 2′FL, diFL, 6′SL and 3′SL) were screened for their ability to activate the GPR35 receptor in an in vitro assay. The screening was conducted by DiscoverX (Fremont, Ca, USA) using the PathHunter β-Arresin assay. This assay monitors the activation of GPR35 expressed in cultured cells, using Enzyme Fragment Complementation with β-galactosidase (β-Gal) as the functional reporter. […] EA is fused to β-Arrestin and PK is fused to GPR35. When the GPR35 is activated and β-Arrestin is recruited to the receptor, PK and EA complementation occurs, restoring β-Gal activity, which is measured using chemiluminescent Detection Reagents.
The GPR35 cell line was expanded from frozen stocks and cultured according to standard procedures. Cells were seeded in a total volume of 20 μL into white walled, 384-well microplates and incubated at 37° C. for the appropriate time prior to testing. All testing was done in duplicate.
HMO samples were shipped to DiscoverX as concentrated stocks in Phosphate Buffered saline. On the test day, a 5× compound working intermediate was prepared in PBS. An amount of 5 μL of 5× sample was added to cells and incubated at room temperature for 3 to 5 hours.
Assay signal was generated through a single addition of 12.5 μL (50% v/v) of PathHunter Detection reagent cocktail, followed by one-hour incubation at room temperature. Microplates were read following signal generation with a PerkinElmer Envision™ instrument for chemiluminescent signal detection.
Zaprinast (which is known to be an activator of GPR35) was used as positive control.
Percentage activity was calculated using the following formula: % Activity=100%×(mean RLU of test sample−mean RLU of vehicle control)/(mean MAX control ligand−mean RLU of vehicle control).
Dose-responses were generated by iterative 3× dilutions of the highest concentration tested (10 mM).
The samples were diluted in 1×PBS (pH˜7) at 5× concentrations and sent to DiscoverX. The GPR35 activation assay was performed as described in Example 2.

GPR35, sequence (Q9HC97 whole entry, the tested form may be a part): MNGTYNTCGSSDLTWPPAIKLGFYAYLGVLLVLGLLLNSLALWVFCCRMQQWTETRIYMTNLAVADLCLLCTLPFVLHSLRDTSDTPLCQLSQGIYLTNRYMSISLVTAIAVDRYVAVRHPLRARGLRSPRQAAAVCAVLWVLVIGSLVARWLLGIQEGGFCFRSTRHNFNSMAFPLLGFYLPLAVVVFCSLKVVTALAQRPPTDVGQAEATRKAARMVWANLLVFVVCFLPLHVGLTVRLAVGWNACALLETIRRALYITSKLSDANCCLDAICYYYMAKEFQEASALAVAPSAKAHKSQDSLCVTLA

Regarding `CC(=O)N[C@H]1[C@H](O[C@H]2[C@@H](O)[C@@H](CO)O[C@@H](O[C@H]3[C@H](O)[C@@H](O)C(O)O[C@@H]3CO)[C@@H]2O)O[C@H](CO)[C@@H](O)[C@@H]1O[C@@H]1O[C@H](CO)[C@H](O)[C@H](O)[C@H]1O` (some centres unmarked) [LNT, lacto-N-tetraose], a half-maximal effect (EC50) was put at 4.5 mM.
Regarding `CC(=O)N[C@H]1[C@H]([C@H](O)[C@H](O)CO)O[C@@](O[C@H]2[C@@H](O)[C@@H](CO)O[C@@H](O[C@H]3[C@H](O)[C@@H](O)C(O)O[C@@H]3CO)[C@@H]2O)(C(=O)O)C[C@@H]1O` (some centres unmarked) [3′SL, 3′ sialyllactose], the “activation of GPR35” value was “No activation”.
Take `CC(=O)N[C@H]1[C@H]([C@H](O)[C@H](O)CO)O[C@@](OC[C@H]2O[C@@H](O[C@H]3[C@H](O)[C@@H](O)[C@H](O)O[C@@H]3CO)[C@H](O)[C@@H](O)[C@H]2O)(C(=O)O)C[C@@H]1O` [6′SL, 6′-sialyllactose]: the EC50 came out at 6.5 mM.
For `CC(=O)N[C@H]1[C@H](O[C@H]2[C@@H](O)[C@@H](CO)O[C@@H](O[C@H]3[C@H](O)[C@@H](O)C(O)O[C@@H]3CO)[C@@H]2O)O[C@H](CO)[C@@H](O[C@@H]2O[C@H](CO)[C@H](O)[C@H](O)[C@H]2O)[C@@H]1O` (mixture of isomers) [LNnT, lacto-N-neotetraose], the “activation of GPR35” value is listed as “No activation”.
Regarding `C[C@@H]1O[C@@H](O[C@H]2[C@H](O[C@H]3[C@H](O[C@@H]4O[C@@H](C)[C@@H](O)[C@@H](O)[C@@H]4O)[C@@H](O)C(O)O[C@@H]3CO)O[C@H](CO)[C@H](O)[C@@H]2O)[C@@H](O)[C@H](O)[C@@H]1O` (some centres unmarked) [diFL, difucosyllactose], the “activation of GPR35” value was “No activation”.
